In patent publication US9453038B2, “Glucokinase activator compounds, compositions containing such compounds, and methods of treatment” (Merck Sharp & Dohme Corp., priority 2012, dated 2016) one finds EC50 and Emax data, which are given here for eight molecules.

In the test the target is Recombinant human liver glucokinase (FLAG fusion protein) (Homo sapiens (Human), UniProt P35557). In words: glucokinase (GK) activation assay, Thio-NADH formation coupled to G6PDH, absorbance at 405 nm. Format: biochemical. Conditions: 2.5 mM Glu; for EC50: 30° C.; for Emax: OD value of DMSO control regarded as 100%, read-out: Emax. The text has this: The glucokinase activity can, for instance, be determined without directly measuring glucose-6-phosphate by measuring the amount of Thio-NADH generated during the production of phosphogluconolactone from glucose-6-phosphate by a reporter enzyme glucose-6-phosphate dehydrogenase.
To test the exemplified compounds, the following assay was employed. Recombinant human liver glucokinase was expressed as a FLAG fusion protein in E. coli, and purified on ANTIFLAG M2 AFFINITY GEL (Sigma). The assay was carried out at 30° C. in a 96-well plate. In the plate was distributed 69 μl each of assay buffer (25 mM Hepes Buffer: pH=7.2, 2 mM MgCl2, 1 mM ATP, 0.5 mM TNAD, 1 mM dithiothreitol), to which was added 1 μl of a DMSO solution of the compound or DMSO as control. Then, 20 μl of pre-ice-cooled enzyme mixture (FLAG-GK, 20 U/ml G6PDH) was distributed thereto, to which was added 10 μl of 25 mM glucose as substrate to initiate the reaction (final glucose concentration=2.5 mM). After starting the reaction, the absorbance at 405 nm was measured every 30 seconds for 10 minutes to evaluate the compound based on the initial increase for 5 minutes. FLAG-GK was added so that the increase of absorbance after 5 minutes fell between 0.05 to 0.1 in the presence of 1% DMSO.
The OD values of the respective compounds were measured in the respective concentrations, wherein the OD value of DMSO as control is regarded as 100%. From the OD values at the respective concentrations, Emax (%, 2.5 mM Glu) and EC50 (nM, 2.5 mM Glu) were calculated and used as indicators of the GK activation capability of the compounds. According to the above assay, the GK activation capability of the exemplified compounds of the present invention was determined. […] Where different enantiomers of the same compound were tested, two numbers are provided. Where 3 numbers are provided, for example, Ex. #30, data for the racemic form is also shown.

A word on the EC50: it is the concentration needed to bring the measured effect to its halfway point. Broadly, the Emax is the greatest response seen or fitted, relative to the assay's reference.

Sequence of Recombinant human liver glucokinase (FLAG fusion protein) (P35557 other isoform, or with tags, fused parts or gaps): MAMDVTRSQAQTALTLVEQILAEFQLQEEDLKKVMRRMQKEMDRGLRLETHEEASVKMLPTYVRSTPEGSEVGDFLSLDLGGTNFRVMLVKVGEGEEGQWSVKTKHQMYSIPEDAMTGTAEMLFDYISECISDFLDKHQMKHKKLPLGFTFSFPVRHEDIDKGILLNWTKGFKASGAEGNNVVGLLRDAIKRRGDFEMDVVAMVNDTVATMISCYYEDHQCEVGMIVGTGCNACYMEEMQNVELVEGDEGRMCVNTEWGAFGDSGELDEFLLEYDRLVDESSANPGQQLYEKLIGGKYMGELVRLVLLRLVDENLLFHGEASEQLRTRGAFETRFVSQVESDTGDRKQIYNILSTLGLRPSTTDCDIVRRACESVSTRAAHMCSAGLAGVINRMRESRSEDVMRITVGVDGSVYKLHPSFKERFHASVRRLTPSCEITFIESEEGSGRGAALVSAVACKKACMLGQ

For the molecule `CN1C(=O)CCC1c1cc2[nH]c(-c3nc(CC(=O)O)c(Cl)s3)cc2cc1Oc1ccc(S(C)(=O)=O)nc1` (stereo not shown) [Example 30, 2-(5-chloro-2-(6-(1-methyl-5-oxopyrrolidin-2-yl)-5-((6-(methylsulfonyl)pyridin-3-yl)oxy)-1H-indol-2-yl)thiazol-4-yl)acetic acid], the EC50 was 49.1 nM and the Emax amounted to 506%.
In the same order, the values of `CN1C(=O)CCC1c1cc2[nH]c(-c3ncc(CCC(=O)O)s3)cc2cc1Oc1ccc(S(C)(=O)=O)nc1` (stereo not shown) [Example 31, 3-(2-(6-(1-methyl-5-oxopyrrolidin-2-yl)-5-((6-(methylsulfonyl)pyridin-3-yl)oxy)-1H-indol-2-yl)thiazol-5-yl)propanoic acid] are 68.8 nM and 599%.
On to `COC(=O)Cc1csc(-c2cc3cc(Oc4ccc(S(C)(=O)=O)cc4)c(C4CCC(=O)N4C)cc3[nH]2)n1` (stereo not shown) [Example 32, methyl 2-(2-(6-(1-methyl-5-oxopyrrolidin-2-yl)-5-(4-(methylsulfonyl)phenoxy)-1H-indol-2-yl)thiazol-4-yl)acetate], for which the EC50 worked out at 65.1 nM and the Emax was 566%.
In the same order, the values of `CN1C(=O)CCC1c1cc2[nH]c(-c3nc(CC(=O)O)c(Cl)s3)cc2cc1Oc1ccc(S(C)(=O)=O)cc1` (stereo not shown) [Example 33, 2-(5-chloro-2-(6-(1-methyl-5-oxopyrrolidin-2-yl)-5-(4-(methylsulfonyl)phenoxy)-1H-indol-2-yl)thiazol-4-yl)acetic acid] are 47.4 nM and 586%.
Taken in the same sequence, the figures for `CN1C(=O)CCC1c1cc2[nH]c(-c3nc(CC(=O)O)cs3)cc2cc1Oc1ccc(S(C)(=O)=O)cc1` (stereo not shown) [Example 34, 2-(2-(6-(1-methyl-5-oxopyrrolidin-2-yl)-5-(4-(methylsulfonyl)phenoxy)-1H-indol-2-yl)thiazol-4-yl)acetic acid] were 118 nM and 606%.
Taken in the same sequence, the figures for `COC(=O)CCc1cnc(-c2cc3cc(Oc4ccc(S(C)(=O)=O)cc4)c(C4CCC(=O)N4C)cc3[nH]2)s1` (stereo not shown) [Example 35, methyl 3-(2-(6-(1-methyl-5-oxopyrrolidin-2-yl)-5-(4-(methylsulfonyl)phenoxy)-1H-indol-2-yl)thiazol-5-yl)propanoate] were 8.9 nM and 656%.
On to `CN1C(=O)CCC1c1cc2[nH]c(-c3ncc(CCC(=O)O)s3)cc2cc1Oc1ccc(S(C)(=O)=O)cc1` (stereo not shown) [Example 36, 3-(2-(6-(1-methyl-5-oxopyrrolidin-2-yl)-5-(4-(methylsulfonyl)phenoxy)-1H-indol-2-yl)thiazol-5-yl)propanoic acid], for which the EC50 amounted to 66.7 nM and the maximal effect (Emax) is 619%.
In the same order, the values of `CCOP(=O)(Cc1cnc(-c2cc3cc(Oc4ccc(S(C)(=O)=O)nc4)c(C4CCC(=O)N4C)cc3[nH]2)s1)OCC` (stereo not shown) [Example 37, diethyl((2-(6-(1-methyl-5-oxopyrrolidin-2-yl)-5-((6-(methylsulfonyl)pyridin-3-yl)oxy)-1H-indol-2-yl)thiazol-5-yl)methyl)phosphonate] are 23.5 nM and 696%.
